Tested on: B16BL6 melanoma cells
Assay: Metastasis-inhibiting activity in B16BL6 melanoma cells by the liposome compositions (lung colony count)
Type: in vivo, C57BL6/J mice
Conditions: lung surface colonies on 21st day; 0.2 mL oral once per day up to 6th day; B16BL6 cells i.v. 3×10^4/animal on 7th day
Experimental: Twenty 5-week old C57BL6/J mice were divided into four groups. The control group received 0.2 mL phosphate-buffered physiological saline (PBS) once per day by forced oral administration up to and including the 6th day of keeping. In like manner, the liposome composition of Example 1 was orally administered instead of the PBS to the group designated as the liposomized β-sitosterol group; an aqueous suspension of ordinary, unliposomized β-sitosterol (contained the same amount of β-sitosterol as the liposomized β-sitosterol administered to the liposomized β-sitosterol group) was orally administered instead of the PBS to the group designated as the β-sitosterol group; and the liposome composition of Comparative Example 1 was orally administered instead of the PBS to the group designated as the liposomized cholesterol group. B16BL6 melanoma cells suspended in serum-free medium were administered intravenously (3×10^4/0.2 ml/animal) on the 7th day of keeping. The mice were dissected on the 21st day of keeping and the lungs were extirpated; the lung surfaces were inspected and the number of colonies was counted.

## CC[C@H](CC[C@@H](C)[C@H]1CC[C@H]2[C@@H]3CC=C4C[C@@H](O)CC[C@]4(C)[C@H]3CC[C@]12C)C(C)C [β-Sitosterol, β-sitosterol]
  Average number of colonies: 43

Source: patent publication US20080102111A1, “Anticancer Composition for Oral Use Comprising Liposome Containing Phytosterols and Prevention or Treatment for Cancer Using the Liposome” (priority 2005, published 2008)
